Where two headings read alike, the source gives them in different places.
Columns and labels:
HDAC1 = HDAC1 (Homo sapiens, UniProt Q13547); assay: HDAC1 inhibitory activity (in vitro pharmacology); assay type: biochemical; details: for inhibition at 10 µM: read-out: % inhibition HDAC1
HDAC6 = biological target: T1, HDAC6 (Homo sapiens, UniProt Q9UBN7); assay: biochemical; details: for inhibition at 10 µM: read-out: % inhibition HDAC6
T1 sequence (Q9UBN7 1-1215): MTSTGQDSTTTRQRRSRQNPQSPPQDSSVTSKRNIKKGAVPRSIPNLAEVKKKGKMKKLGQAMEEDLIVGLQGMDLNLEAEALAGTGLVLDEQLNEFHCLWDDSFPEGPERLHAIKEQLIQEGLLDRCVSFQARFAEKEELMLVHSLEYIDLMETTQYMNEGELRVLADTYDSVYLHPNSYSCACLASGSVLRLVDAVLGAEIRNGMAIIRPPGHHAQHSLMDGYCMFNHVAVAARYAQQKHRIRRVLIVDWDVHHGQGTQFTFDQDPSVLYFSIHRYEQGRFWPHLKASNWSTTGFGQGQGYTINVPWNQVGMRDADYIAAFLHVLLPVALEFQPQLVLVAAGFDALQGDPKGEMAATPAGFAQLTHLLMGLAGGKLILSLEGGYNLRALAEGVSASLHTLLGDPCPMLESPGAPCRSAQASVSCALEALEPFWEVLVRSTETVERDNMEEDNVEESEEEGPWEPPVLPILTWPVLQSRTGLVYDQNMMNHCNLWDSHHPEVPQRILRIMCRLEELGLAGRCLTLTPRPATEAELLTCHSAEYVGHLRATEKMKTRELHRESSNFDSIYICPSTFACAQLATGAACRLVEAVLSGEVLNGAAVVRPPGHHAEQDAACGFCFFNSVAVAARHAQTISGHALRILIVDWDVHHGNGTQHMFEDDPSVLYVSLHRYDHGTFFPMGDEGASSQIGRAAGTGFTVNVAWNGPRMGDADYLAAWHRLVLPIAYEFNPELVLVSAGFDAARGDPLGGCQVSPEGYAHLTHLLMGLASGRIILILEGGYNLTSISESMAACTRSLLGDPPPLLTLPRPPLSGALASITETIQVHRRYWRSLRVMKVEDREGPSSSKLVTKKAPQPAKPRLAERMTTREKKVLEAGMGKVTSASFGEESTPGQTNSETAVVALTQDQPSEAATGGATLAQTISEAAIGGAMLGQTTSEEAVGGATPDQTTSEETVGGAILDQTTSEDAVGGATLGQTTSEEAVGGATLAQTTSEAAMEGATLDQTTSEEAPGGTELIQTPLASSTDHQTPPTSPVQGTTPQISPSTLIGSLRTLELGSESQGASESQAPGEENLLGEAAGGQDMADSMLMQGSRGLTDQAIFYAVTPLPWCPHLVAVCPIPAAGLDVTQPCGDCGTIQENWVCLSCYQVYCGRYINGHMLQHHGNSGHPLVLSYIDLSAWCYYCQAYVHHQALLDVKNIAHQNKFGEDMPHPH

HDAC4 = HDAC4 (Homo sapiens, UniProt P56524); assay: HDAC4 inhibition (selectivity); assay type: biochemical
HDAC8 = biological target: T2, HDAC8 (Homo sapiens, UniProt Q9BY41); assay: HDAC8 inhibition (selectivity); assay type: biochemical
T2 sequence (Q9BY41 1-377): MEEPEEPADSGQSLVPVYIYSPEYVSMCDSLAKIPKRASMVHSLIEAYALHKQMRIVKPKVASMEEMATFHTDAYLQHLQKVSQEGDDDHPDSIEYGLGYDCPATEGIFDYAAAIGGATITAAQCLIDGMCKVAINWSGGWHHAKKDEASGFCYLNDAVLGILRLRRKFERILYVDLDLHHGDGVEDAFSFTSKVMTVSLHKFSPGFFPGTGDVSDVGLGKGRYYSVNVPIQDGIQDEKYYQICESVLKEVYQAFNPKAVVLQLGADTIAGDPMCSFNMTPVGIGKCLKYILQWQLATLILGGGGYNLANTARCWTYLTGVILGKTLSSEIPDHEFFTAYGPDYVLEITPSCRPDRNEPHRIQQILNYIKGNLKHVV

HDAC11 = biological target: T3, HDAC11 (Homo sapiens, UniProt Q96DB2); assay: HDAC11 inhibition (selectivity); assay type: biochemical; details: for HDAC 11 inhibitory effect: no IC50 values could be obtained
T3 sequence (Q96DB2 1-347): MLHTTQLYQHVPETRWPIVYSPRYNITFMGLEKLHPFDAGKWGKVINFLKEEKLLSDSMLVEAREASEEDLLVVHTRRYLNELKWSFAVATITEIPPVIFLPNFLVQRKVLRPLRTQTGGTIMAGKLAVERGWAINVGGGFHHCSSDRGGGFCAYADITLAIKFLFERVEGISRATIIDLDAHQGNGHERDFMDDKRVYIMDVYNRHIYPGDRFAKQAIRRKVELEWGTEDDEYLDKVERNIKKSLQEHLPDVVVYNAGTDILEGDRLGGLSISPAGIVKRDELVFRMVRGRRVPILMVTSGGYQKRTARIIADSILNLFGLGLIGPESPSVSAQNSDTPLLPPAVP

[1] = system: MO4 mouse fibrosarcoma cells; assay: SRB assay, inhibition of cell proliferation; assay type: cell-based; details: tested at 0.01, 0.1, 1 and 10 μg/ml, FIG. 2
Protocol: The sulforhodamine B (SRB) assay is used for cell density determination, and is based on the measurement of cellular protein content (“biomass”)^12,13. The method has been optimized for the screening of compounds for growth effects on adherent cells in a 96-well format. After an incubation period with the compound of the invention, cell monolayers (MO4 mouse fibrosarcoma cells) are fixed with 50% (wt/vol) trichloroacetic acid for 1 hour and stained with SRB for 30 min, after which the excess dye is removed by washing repeatedly with 1% (vol/vol) […]. The protein-bound dye is dissolved in 10 mM Tris base solution for OD determination at 570 nm using a microplate reader. […] The method allows to test a large number of samples within a few days, and is a quantitative assay for growth inhibition by microtubule inhibitors.

[2] = system: MDA MB 231 human mammary adenocarcinoma cells; assay: Collagen invasion assay; assay type: cell-based; details: for inhibition of invasion of cells into collagen type I gel: 24 hours, FIG. 4
Source text: Tissue invasion requires infiltration into an extracellular matrix (ECM) dominated by networks of collagen type I. The invasion model consists of native, acid-extracted rat tail collagen type I containing nonhelical telopeptides situated at the N- and C-terminal ends. These telopeptides play an important role in intermolecular covalent cross-links necessary for a gel architecture presenting itself as a structural barrier to cancer cell traffic. […] The collagen type I solution was gently poured into the wells of a 6-well plate. The experimental set-up was placed at 37° C. in a humidified atmosphere with 10% CO2 in air for at least 1 h. […] Invasion is calculated as the percentage of invading cells per high powered field and is expressed as the mean and standard deviation.
Compound 7c (10 μg/ml) and paclitaxel (1 μg/ml) were tested in the assay. As a control, cells in medium without additional compounds was used. The effect of the solvent of compound 7c (1% DMSO) was measured as well.

[3] = MTT assay, inhibition of cell proliferation; details: tested at 0.01, 0.1, 1 and 10 μg/ml; FIG. 3
[4] = read-out: IC50 values for HDAC6 inhibition, Table 3 and text

HDAC4, sequence (P56524 whole entry, species assumed): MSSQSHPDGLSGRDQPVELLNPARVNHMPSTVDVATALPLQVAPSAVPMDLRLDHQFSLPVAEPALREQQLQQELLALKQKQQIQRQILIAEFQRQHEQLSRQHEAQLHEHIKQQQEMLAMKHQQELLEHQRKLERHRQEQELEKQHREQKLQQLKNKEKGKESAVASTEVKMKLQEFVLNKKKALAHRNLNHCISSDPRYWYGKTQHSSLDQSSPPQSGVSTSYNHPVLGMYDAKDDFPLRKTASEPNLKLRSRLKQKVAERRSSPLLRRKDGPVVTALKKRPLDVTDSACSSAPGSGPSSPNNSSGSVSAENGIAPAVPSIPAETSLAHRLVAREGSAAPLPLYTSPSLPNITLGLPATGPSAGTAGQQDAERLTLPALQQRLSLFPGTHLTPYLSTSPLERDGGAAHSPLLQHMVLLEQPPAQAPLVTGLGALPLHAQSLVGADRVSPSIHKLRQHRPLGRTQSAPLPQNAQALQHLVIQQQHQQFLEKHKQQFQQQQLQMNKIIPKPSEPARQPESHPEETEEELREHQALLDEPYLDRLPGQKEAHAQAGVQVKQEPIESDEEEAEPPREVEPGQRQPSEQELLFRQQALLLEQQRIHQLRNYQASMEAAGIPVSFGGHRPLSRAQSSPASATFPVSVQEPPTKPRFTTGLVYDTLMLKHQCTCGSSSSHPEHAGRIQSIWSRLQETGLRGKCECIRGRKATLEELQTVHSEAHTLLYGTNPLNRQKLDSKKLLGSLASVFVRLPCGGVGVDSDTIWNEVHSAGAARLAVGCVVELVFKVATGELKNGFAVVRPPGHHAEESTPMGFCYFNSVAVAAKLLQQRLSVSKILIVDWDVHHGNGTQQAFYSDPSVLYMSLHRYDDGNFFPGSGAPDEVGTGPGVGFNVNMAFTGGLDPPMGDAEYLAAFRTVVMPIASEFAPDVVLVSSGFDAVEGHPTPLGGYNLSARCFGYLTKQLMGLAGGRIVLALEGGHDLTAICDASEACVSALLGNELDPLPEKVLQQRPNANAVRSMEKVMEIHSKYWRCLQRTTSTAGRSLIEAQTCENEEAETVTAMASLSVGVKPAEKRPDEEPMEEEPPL
HDAC1, sequence (Q13547 whole entry, species assumed): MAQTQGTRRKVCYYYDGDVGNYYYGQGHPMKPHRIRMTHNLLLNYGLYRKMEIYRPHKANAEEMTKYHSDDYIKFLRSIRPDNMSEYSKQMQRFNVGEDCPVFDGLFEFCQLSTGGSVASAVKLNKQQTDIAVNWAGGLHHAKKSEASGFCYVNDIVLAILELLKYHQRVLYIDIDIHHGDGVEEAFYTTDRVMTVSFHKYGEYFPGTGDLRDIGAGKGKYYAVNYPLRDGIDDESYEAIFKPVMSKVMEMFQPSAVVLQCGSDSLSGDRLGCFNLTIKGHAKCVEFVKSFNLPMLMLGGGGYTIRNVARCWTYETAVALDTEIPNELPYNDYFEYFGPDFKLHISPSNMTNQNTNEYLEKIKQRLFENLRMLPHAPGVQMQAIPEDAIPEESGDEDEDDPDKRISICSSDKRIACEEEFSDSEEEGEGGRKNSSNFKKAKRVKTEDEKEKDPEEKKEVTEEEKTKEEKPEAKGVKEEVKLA

Structure (SMILES): O=C(NO)c1ccc(Cn2c3c(c4ccccc42)CS(=O)(=O)CC3)cc1 [Compound 10a, N-(4-Hydroxycarbamoylbenzyl)-1,2,4,9-tetrahydro-3-thia-9-azafluorene-3,3-dioxide]
- IC50 (HDAC1): 11 µM
- inhibition at 10 µM (HDAC1): 51%
- IC50 (HDAC1; read-out: HDAC1 IC50, Table 5): 11 µM
- HDAC6 versus HDAC4 selectivity (HDAC6): 842 fold
- HDAC6 versus HDAC8 selectivity (HDAC6): 895 fold
- IC50 (HDAC6): 0.0019 µM
- selectivity against HDAC1 (HDAC6 vs HDAC1) (HDAC6): 5789 fold
- Selectivity = IC50 (HDAC1)/IC50 (HDAC6) (HDAC6; Table 5): 5789
- inhibition at 10 µM (HDAC6): 99%
- IC50 (HDAC6; read-out: HDAC6 IC50, Table 4): 0.0019 µM
- IC50 (HDAC6; read-out: HDAC6 IC50, Table 5): 0.0019 µM
- IC50 (HDAC6; [4]): 0.0019 µM
- IC50 (HDAC4): 1.6 µM
- IC50 (HDAC8): 1.7 µM
- HDAC 11 inhibitory effect (HDAC11): very low

Structure (SMILES): CC(=O)O[C@H]1C(=O)[C@@]2(C)[C@H]([C@H](OC(=O)c3ccccc3)[C@]3(O)C[C@H](OC(=O)[C@H](O)[C@@H](NC(=O)c4ccccc4)c4ccccc4)C(C)=C1C3(C)C)[C@]1(OC(C)=O)CO[C@@H]1C[C@@H]2O [Paclitaxel, reference compound]
- inhibition of cell proliferation, SRB assay [1]: inhibition of cell proliferation
- inhibition of invasion of cells into collagen type I gel ([2]; 1 μg/ml): inhibition of invasion
- inhibition of cell proliferation, MTT assay [3]: inhibition of cell proliferation

Structure (SMILES): COc1cc(C(=O)NO)ccc1Cn1c2c(c3cc(F)ccc31)CS(=O)(=O)CC2 [Compound 10d]
- inhibition at 10 µM (HDAC1): 8%
- IC50 (HDAC6): 1.3 µM
- inhibition at 10 µM (HDAC6): 75%

Structure (SMILES): COc1cc(C(=O)NO)ccc1Cn1c2c(c3ccccc31)CS(=O)(=O)CC2 [Compound 10b]
- inhibition at 10 µM (HDAC1): 2%
- IC50 (HDAC6): 2 µM
- inhibition at 10 µM (HDAC6): 73%

Structure (SMILES): O=C(NO)c1ccc(Cn2c3c(c4ccccc42)CSCC3)cc1 [Compound 7a, N-(4-Hydroxycarbamoylbenzyl)-1,2,4,9-tetrahydro-3-thia-9-azafluorene]
- inhibition at 10 µM (HDAC1): 26%
- IC50 (HDAC6): 0.015 µM
- inhibition at 10 µM (HDAC6): 99%
- inhibition of cell proliferation, SRB assay [1]: inhibit cell proliferation
- inhibition of cell proliferation, SRB assay ([1]; listed as 7A): inhibition of cell proliferation
- inhibition of cell proliferation, MTT assay [3]: inhibition of cell proliferation

Structure (SMILES): O=C(NO)c1ccc(Cn2c3c(c4cc(F)ccc42)CSCC3)cc1 [Compound 7c, N-(4-Hydroxycarbamoylbenzyl)-6-fluoro-1,2,4,9-tetrahydro-3-thia-9-azafluorene]
- IC50 (HDAC1): 21 µM
- inhibition at 10 µM (HDAC1): 17%
- HDAC6 versus HDAC8 selectivity (HDAC6): 127 fold
- IC50 (HDAC6): 0.022 µM
- inhibition at 10 µM (HDAC6): 99%
- IC50 (HDAC6; read-out: HDAC6 IC50, Table 4): 0.022 µM
- IC50 (HDAC6; [4]): 0.022 µM
- IC50 (HDAC4): 1.5 µM
- IC50 (HDAC8): 2.8 µM
- IC50 (HDAC11): 9.7 µM
- inhibition of cell proliferation, SRB assay [1]: inhibit cell proliferation
- inhibition of cell proliferation, SRB assay ([1]; listed as 7C): inhibition of cell proliferation
- inhibition of invasion of cells into collagen type I gel ([2]; 10 μg/ml, compared to solvent control (1% DMSO)): inhibits invasion
- inhibition of invasion of cells into collagen type I gel ([2]; 10 μg/ml, compared to solvent control (1% DMSO), listed as 7C): inhibition of invasion
- histology of invasion ([2]; after 14 days): confirmed inhibition of invasion
- inhibition of cell proliferation, MTT assay [3]: inhibition of cell proliferation

Structure (SMILES): O=C(NO)c1ccc(Cn2c3c(c4cc(F)ccc42)CS(=O)(=O)CC3)cc1 [Compound 10c, N-(4-Hydroxycarbamoylbenzyl)-6-fluoro-1,2,4,9-tetrahydro-3-thia-9-azafluorene-3,3-dioxide]
- IC50 (HDAC1): 12 µM
- inhibition at 10 µM (HDAC1): 53%
- IC50 (HDAC1; read-out: HDAC1 IC50, Table 5): 12 µM
- HDAC6 versus HDAC4 selectivity (HDAC6): 513 fold
- HDAC6 versus HDAC8 selectivity (HDAC6): 251 fold
- IC50 (HDAC6): 0.0037 µM
- selectivity against HDAC1 (HDAC6 vs HDAC1) (HDAC6): 3243 fold
- Selectivity = IC50 (HDAC1)/IC50 (HDAC6) (HDAC6; Table 5): 3243
- inhibition at 10 µM (HDAC6): 99%
- IC50 (HDAC6; read-out: HDAC6 IC50, Table 4): 0.0037 µM
- IC50 (HDAC6; read-out: HDAC6 IC50, Table 5): 0.0037 µM
- IC50 (HDAC6; [4]): 0.0037 µM
- IC50 (HDAC4): 1.9 µM
- IC50 (HDAC8): 0.93 µM
- HDAC 11 inhibitory effect (HDAC11): very low

Reference: patent US9586973B2, “HDAC6 inhibitors and uses thereof” (Universiteit Gent, priority 2013, dated 2017)
